Laboratory results from PMC9597602, “Metal Complexes as Antifungals? From a Crowd-Sourced Compound Library to the First In Vivo Experiments” (JACS Au, 2022).
Several values for one entry are separate records, joined by “and”; a condition that tells them apart may be missing. Identical values can stand only once. Like-named read-outs stand apart in the source and are kept apart here. Starred links: 1 amine or outer side, 2 acyl side, 3 side chain; linkers in the order of their positions; H or OH if unused. Positions of bridges follow the written chain, without caps; N, C: chain ends. Non-standard residues stand in square brackets, D forms with d. Residues, ends and D or L forms follow the SMILES beside them. *: point of attachment. pTerphenylCO(4''-OnC5H11) = CCCCCOc1ccc(-c2ccc(-c3ccc(C(=O)*)cc3)cc2)cc1; Orn(4R-OH,5R-OH) = O=C([C@H](C[C@@H](O)[C@@H](O)N[*:3])N[*:1])[*:2]; hTyr(3S-OH,4S-OH) = N[C@H](C(=O)O)[C@H](O)[C@@H](O)c1ccc(O)cc1; Pro(3S-OH,4S-Me) = C[C@H]1CN[C@H](C(=O)O)[C@H]1O; Hyp = O=C(O)[C@@H]1C[C@@H](O)CN1

How the values were obtained:
Type in all cases: cell-based
[1] = system: Candida albicans ATCC 90028 NCCLS11; assay: Antifungal MIC assay; settings: Candida albicans, ATCC90028, comparator antifungals, read-out: MIC* Candida albicans ATCC 90028
Description: For the fungal assays, both fungi (yeast) strains were cultured for 3 days on Yeast Extract-Peptone Dextrose (YPD; Becton Dickinson 242720) agar at 30 °C. A yeast suspension of 1 × 10^6 to 5 × 10^6 CFU/mL (as determined by OD530) was prepared from five colonies from the agar plates, subsequently diluted with Yeast Nitrogen Base media (YNB; Becton Dickinson 233520), and added to each well of the compound containing plates (384-well plates, NBS; Corning CLS3640), giving a final cell density of 2.5 × 10^3 CFU/mL and a total volume of 50 μL. Plates were covered and incubated at 35 °C for 36 h without shaking. […] […], equivalent to ″optically clear-to-slightly hazy″ or MIC score of 0–1 as per CLSI guidelines M27 Reference Method for Broth Dilution Antifungal Susceptibility Testing of Yeasts. […] Fluconazole (Sigma F8929) was used as internal control on each plate for all strains. All compounds were tested as two technical replicates in two to four independent biological assays, n = 4–8 final data.

[2] = system: Cryptococcus neoformans H99 ATCC 208821 type strain; assay: Antifungal MIC assay; settings: Cryptococcus neoformans
Description: (§1) For the fungal assays, both fungi (yeast) strains were cultured for 3 days on Yeast Extract-Peptone Dextrose (YPD; Becton Dickinson 242720) agar at 30 °C. A yeast suspension of 1 × 10^6 to 5 × 10^6 CFU/mL (as determined by OD530) was prepared from five colonies from the agar plates, subsequently diluted with Yeast Nitrogen Base media (YNB; Becton Dickinson 233520), and added to each well of the compound containing plates (384-well plates, NBS; Corning CLS3640), giving a final cell density of 2.5 × 10^3 CFU/mL and a total volume of 50 μL. Plates were covered and incubated at 35 °C for 36 h without shaking. […] MIC values were recorded as the lowest concentration at which the growth was inhibited by ≥80%, equivalent to ″optically clear-to-slightly hazy″ or MIC score of 0–1 as per CLSI guidelines M27 Reference Method for Broth Dilution Antifungal Susceptibility Testing of Yeasts. […] Fluconazole (Sigma F8929) was used as internal control on each plate for all strains. All compounds were tested as two technical replicates in two to four independent biological assays, n = 4–8 final data.

[3] = system: Candida auris CBS10913 JCM 15448; assay: Antifungal MIC assay, extended panel; settings: Candidozyma auris, comparator antifungals, read-out: MIC* Candida auris CBS10913
Description: (§2) For the fungal assays, both fungi (yeast) strains were cultured for 3 days on Yeast Extract-Peptone Dextrose (YPD; Becton Dickinson 242720) agar at 30 °C. A yeast suspension of 1 × 10^6 to 5 × 10^6 CFU/mL (as determined by OD530) was prepared from five colonies from the agar plates, subsequently diluted with Yeast Nitrogen Base media (YNB; Becton Dickinson 233520), and added to each well of the compound containing plates (384-well plates, NBS; Corning CLS3640), giving a final cell density of 2.5 × 10^3 CFU/mL and a total volume of 50 μL. Plates were covered and incubated at 35 °C for 36 h without shaking. […] MIC […] Reference Method for Broth Dilution Antifungal Susceptibility Testing of Yeasts. […] Fluconazole (Sigma F8929) was used as internal control on each plate for all strains. All compounds were tested as two technical replicates in two to four independent biological assays, n = 4–8 final data.

[4] = system: Candida auris CBS12373 KCTC 17810; assay: Antifungal MIC assay, extended panel; settings: Candidozyma auris, comparator antifungals, read-out: MIC* Candida auris CBS12373
Description: as §2

[5] = system: Candida glabrata ATCC 90030 NCCLS 84; assay: Antifungal MIC assay, extended panel; settings: Nakaseomyces glabratus, ATCC90030, comparator antifungals
Description: as §1

[6] = system: Candida tropicalis ATCC 750; assay: Antifungal MIC assay, extended panel; settings: Candida tropicalis, ATCC750, comparator antifungals
Description: as §1

[7] = system: Cryptococcus deuterogattii ATCC 32609 VGII; assay: Antifungal MIC assay, extended panel; settings: Cryptococcus deuterogattii, ATCC32609, comparator antifungals
Description: as §1

[8] = system: Cryptococcus deuterogattii CBS7750 VGII; Serotype B; assay: Antifungal MIC assay, extended panel; settings: Cryptococcus deuterogattii, CBS7750, comparator antifungals
Description: as §1

[9] = ≥80% inhibition, converted with MW of Table S12
[10] = ATCC208821, comparator antifungals, MIC = ≥80% inhibition, read-out: MIC* Cryptococcus neoformans ATCC 208821
[11] = ATCC208821, comparator antifungals, ≥80% inhibition, converted with MW of Table S12, read-out: MIC* Cryptococcus neoformans ATCC 208821

## C[C@@H]1[C@H](O)[C@@H](C)/C=C/C=C/C=C/C=C/C=C/C=C/C=C/[C@H](O[C@@H]2O[C@H](C)[C@@H](O)[C@H](N)[C@@H]2O)C[C@@H]2O[C@](O)(C[C@@H](O)C[C@@H](O)[C@H](O)CC[C@@H](O)C[C@@H](O)CC(=O)O[C@H]1C)C[C@H](O)[C@H]2C(=O)O [Amphotericin B, reference compound]
[1]; MIC = ≥80% inhibition
  MIC: 0.125 to 1 µg/mL
[1]; [9]
  MIC: 0.192 to 1.53 µM
[2]; [10]
  MIC: 2 to 8 µg/mL
[2]; [11]
  MIC: 3.01 to 12.3 µM
[3]; MIC = ≥80% inhibition
  MIC: 16 µg/mL
[3]; [9]
  MIC: 24.5 µM
[4]; MIC = ≥80% inhibition
  MIC: > 128 µg/mL
[4]; [9]
  MIC: ≥ 196 µM
[5]; MIC = ≥80% inhibition
  MIC: ≥ 64 µg/mL
[5]; [9]
  MIC: ≥ 98.2 µM
[6]; MIC = ≥80% inhibition
  MIC: 2 to 4 µg/mL
[6]; [9]
  MIC: 3.01 to 6.13 µM
[7]; MIC = ≥80% inhibition
  MIC: 4 to 16 µg/mL
[7]; [9]
  MIC: 6.13 to 24.5 µM
[8]; MIC = ≥80% inhibition
  MIC: 1 to 8 µg/mL
[8]; [9]
  MIC: 1.53 to 12.3 µM

## CCCCCOc1ccc(-c2ccc(-c3ccc(C(=O)N[C@H]4C[C@@H](O)[C@@H](O)NC(=O)[C@@H]5[C@@H](O)[C@@H](C)CN5C(=O)[C@H]([C@@H](C)O)NC(=O)[C@H]([C@H](O)[C@@H](O)c5ccc(O)cc5)NC(=O)[C@@H]5C[C@@H](O)CN5C(=O)[C@H]([C@@H](C)O)NC4=O)cc3)cc2)cc1 [Anidulafungin, reference compound] ({pTerphenylCO(4''-OnC5H11)}-[Orn(4R-OH,5R-OH)]T[Hyp][hTyr(3S-OH,4S-OH)]T[Pro(3S-OH,4S-Me)]; lactam 1-C)
[1]; MIC = ≥80% inhibition
  MIC: 0.031 to 0.125 µg/mL
[1]; [9]
  MIC: 0.027 to 0.11 µM
[2]; ATCC208821, read-out: MIC* Cryptococcus neoformans ATCC 208821
  MIC: 0.016 µg/mL to 0.125 µg/mL and 0.014 µM to 0.11 µM
[3]; MIC = ≥80% inhibition
  MIC: 0.031 to 0.125 µg/mL
[3]; [9]
  MIC: 0.027 to 0.11 µM
[4]; MIC = ≥80% inhibition
  MIC: 0.25 µg/mL
[4]; [9]
  MIC: 0.219 µM
[5]; MIC = ≥80% inhibition
  MIC: 0.008 µg/mL
[5]; [9]
  MIC: 0.007 µM
[6]; MIC = ≥80% inhibition
  MIC: 0.004 to 0.008 µg/mL
[6]; [9]
  MIC: 0.003 to 0.007 µM
[7]; MIC = ≥80% inhibition
  MIC: 0.003 to 0.25 µg/mL
[7]; [9]
  MIC: 0.003 to 0.219 µM
[8]; MIC = ≥80% inhibition
  MIC: 0.06 to 0.25 µg/mL
[8]; [9]
  MIC: 0.055 to 0.219 µM

## CC[C@H](C)C[C@H](C)CCCCCCCCC(=O)N[C@H]1C[C@@H](O)[C@@H](NCCN)NC(=O)[C@@H]2[C@@H](O)CCN2C(=O)[C@H]([C@H](O)CCN)NC(=O)[C@H]([C@H](O)[C@@H](O)c2ccc(O)cc2)NC(=O)[C@@H]2C[C@@H](O)CN2C(=O)[C@H]([C@@H](C)O)NC1=O [Caspofungin, reference compound]
[1]; MIC = ≥80% inhibition
  MIC: 0.391 to 1.56 µg/mL
[1]; [9]
  MIC: 0.357 to 1.43 µM
[2]; [10]
  MIC: 0.098 to 1.56 µg/mL
[2]; [11]
  MIC: 0.089 to 1.43 µM
[3]; MIC = ≥80% inhibition
  MIC: 6.25 µg/mL
[3]; [9]
  MIC: 5.72 µM
[4]; MIC = ≥80% inhibition
  MIC: 12.5 µg/mL
[4]; [9]
  MIC: 11.4 µM
[5]; MIC = ≥80% inhibition
  MIC: 6.25 to 12.5 µg/mL
[5]; [9]
  MIC: 5.72 to 11.4 µM
[6]; MIC = ≥80% inhibition
  MIC: 1.56 µg/mL
[6]; [9]
  MIC: 1.43 µM
[7]; MIC = ≥80% inhibition
  MIC: 0.1 to 0.63 µg/mL
[8]; MIC = ≥80% inhibition
  MIC: 0.06 to 0.1 µg/mL
[8]; [9]
  MIC: 0.029 to 0.089 µM

## CCC(C)n1ncn(-c2ccc(N3CCN(c4ccc(OCC5COC(Cn6cncn6)(c6ccc(Cl)cc6Cl)O5)cc4)CC3)cc2)c1=O (stereo not drawn) [Itraconazole, reference compound]
[1]; MIC = ≥80% inhibition
  MIC: 0.062 to 0.25 µg/mL
[1]; [9]
  MIC: 0.089 to 0.354 µM
[2]; [10]
  MIC: 1 to 2 µg/mL
[2]; [11]
  MIC: 1.42 to 2.83 µM
[3]; MIC = ≥80% inhibition
  MIC: 0.063 µg/mL
[3]; [9]
  MIC: 0.089 µM
[4]; MIC = ≥80% inhibition
  MIC: 2 µg/mL
[4]; [9]
  MIC: 2.83 µM
[5]; MIC = ≥80% inhibition
  MIC: 32 µg/mL
[5]; [9]
  MIC: 45 µM
[6]; MIC = ≥80% inhibition
  MIC: 2 µg/mL
[6]; [9]
  MIC: 2.83 µM
[7]; MIC = ≥80% inhibition
  MIC: 2 to 8 µg/mL
[7]; [9]
  MIC: 2.83 to 11.3 µM
[8]; MIC = ≥80% inhibition
  MIC: 2 to 4 µg/mL
[8]; [9]
  MIC: 2.83 to 5.67 µM

## CC[C@@H]([C@H](C)O)n1ncn(-c2ccc(N3CCN(c4ccc(OC[C@@H]5CO[C@@](Cn6cncn6)(c6ccc(F)cc6F)C5)cc4)CC3)cc2)c1=O [Posaconazole, reference compound]
[1]; MIC = ≥80% inhibition
  MIC: 0.001 to 0.031 µg/mL
[1]; [9]
  MIC: 0.002 to 0.063 µM
[2]; [10]
  MIC: 0.016 to 0.125 µg/mL
[2]; [11]
  MIC: 0.032 to 0.253 µM
[3]; MIC = ≥80% inhibition
  MIC: 0.031 to 0.063 µg/mL
[3]; [9]
  MIC: 0.063 to 0.126 µM
[4]; MIC = ≥80% inhibition
  MIC: 2 µg/mL
[4]; [9]
  MIC: 4.04 µM
[5]; MIC = ≥80% inhibition
  MIC: 2 µg/mL
[5]; [9]
  MIC: 4.04 µM
[6]; MIC = ≥80% inhibition
  MIC: 0.125 µg/mL
[6]; [9]
  MIC: 0.253 µM
[7]; MIC = ≥80% inhibition
  MIC: 0.015 to 0.25 µg/mL
[7]; [9]
  MIC: 0.032 to 0.506 µM
[8]; MIC = ≥80% inhibition
  MIC: 0.06 to 0.125 µg/mL
[8]; [9]
  MIC: 0.126 to 0.253 µM
